Assay results published in ChEMBL document CHEMBL6071181, “Discovery of ZLC491 as a Potent, Selective, and Orally Bioavailable CDK12/13 PROTAC Degrader” (J Med Chem, 2024).
The source made the active and inactive calls. The calls are words filed in the database; no cut-off is given here.

Legend:
[1] = target: T1, Protein cereblon/Cyclin-dependent kinase 13 (Homo sapiens) (UniProt Q14004+Q96SW2); assay: PROTAC activity at CRBN/CDK13 in human MDA-MB-231 cells assessed as induction of CDK13 degradation incubated for 15 hrs by immunoblotting analysis; assay type: cell-based
T1 sequence (Q14004 whole entry, looked up): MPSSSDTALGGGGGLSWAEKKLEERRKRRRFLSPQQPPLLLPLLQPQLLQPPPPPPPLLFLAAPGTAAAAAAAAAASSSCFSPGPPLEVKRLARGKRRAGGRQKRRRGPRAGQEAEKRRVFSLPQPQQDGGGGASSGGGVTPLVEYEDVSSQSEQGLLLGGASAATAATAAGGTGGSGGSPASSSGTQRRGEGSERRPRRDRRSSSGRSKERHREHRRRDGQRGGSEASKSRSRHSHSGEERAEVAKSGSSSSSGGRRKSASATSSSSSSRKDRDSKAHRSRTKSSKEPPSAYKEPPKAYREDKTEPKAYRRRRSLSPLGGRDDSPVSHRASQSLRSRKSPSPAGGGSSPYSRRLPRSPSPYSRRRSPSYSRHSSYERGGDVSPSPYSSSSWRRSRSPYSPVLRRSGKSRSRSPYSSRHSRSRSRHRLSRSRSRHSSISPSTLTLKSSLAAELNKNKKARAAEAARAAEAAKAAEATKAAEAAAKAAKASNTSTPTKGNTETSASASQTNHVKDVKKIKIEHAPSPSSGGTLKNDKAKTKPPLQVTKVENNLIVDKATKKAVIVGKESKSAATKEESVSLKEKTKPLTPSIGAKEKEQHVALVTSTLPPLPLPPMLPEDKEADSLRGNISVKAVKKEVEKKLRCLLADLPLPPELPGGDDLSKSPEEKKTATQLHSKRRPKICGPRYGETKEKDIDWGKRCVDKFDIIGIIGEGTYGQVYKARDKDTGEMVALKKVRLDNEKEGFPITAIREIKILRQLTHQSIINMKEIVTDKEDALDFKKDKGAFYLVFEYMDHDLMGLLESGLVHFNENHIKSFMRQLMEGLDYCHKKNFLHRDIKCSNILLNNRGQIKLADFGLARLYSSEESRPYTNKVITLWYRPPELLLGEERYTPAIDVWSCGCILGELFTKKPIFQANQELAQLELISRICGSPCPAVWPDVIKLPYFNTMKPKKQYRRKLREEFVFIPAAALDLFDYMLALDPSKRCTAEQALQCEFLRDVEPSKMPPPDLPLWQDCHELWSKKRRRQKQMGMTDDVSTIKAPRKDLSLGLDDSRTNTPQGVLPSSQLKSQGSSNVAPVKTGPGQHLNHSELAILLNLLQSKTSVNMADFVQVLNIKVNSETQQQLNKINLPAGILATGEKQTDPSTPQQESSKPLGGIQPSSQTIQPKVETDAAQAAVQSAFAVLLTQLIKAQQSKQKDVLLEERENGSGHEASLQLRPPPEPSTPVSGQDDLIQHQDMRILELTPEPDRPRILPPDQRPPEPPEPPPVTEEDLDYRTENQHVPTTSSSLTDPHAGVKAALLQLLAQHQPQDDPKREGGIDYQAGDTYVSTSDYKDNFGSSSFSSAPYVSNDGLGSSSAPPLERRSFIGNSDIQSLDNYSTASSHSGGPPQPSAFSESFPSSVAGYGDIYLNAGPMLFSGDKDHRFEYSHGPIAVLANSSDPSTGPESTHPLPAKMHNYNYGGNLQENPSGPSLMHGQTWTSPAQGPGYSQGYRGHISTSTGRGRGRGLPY
T1 sequence (Q96SW2 whole entry, looked up): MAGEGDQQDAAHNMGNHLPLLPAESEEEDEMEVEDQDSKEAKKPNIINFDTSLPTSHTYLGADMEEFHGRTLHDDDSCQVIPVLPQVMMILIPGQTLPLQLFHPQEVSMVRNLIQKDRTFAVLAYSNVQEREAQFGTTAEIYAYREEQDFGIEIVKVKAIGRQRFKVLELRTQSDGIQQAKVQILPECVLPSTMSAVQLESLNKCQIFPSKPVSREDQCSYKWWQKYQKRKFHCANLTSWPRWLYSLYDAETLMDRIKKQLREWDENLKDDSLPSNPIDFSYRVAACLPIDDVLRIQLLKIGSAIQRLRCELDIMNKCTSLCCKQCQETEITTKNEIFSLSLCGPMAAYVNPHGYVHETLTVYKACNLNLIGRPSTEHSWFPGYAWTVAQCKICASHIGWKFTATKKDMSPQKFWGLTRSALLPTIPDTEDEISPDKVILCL

[2] = target: T2, Protein cereblon/Cyclin-dependent kinase 12 (Homo sapiens) (UniProt Q9NYV4+Q96SW2); assay: PROTAC activity at CRBN/CDK12 in human MDA-MB-231 cells assessed as induction of CDK12 degradation at 1 uM by immunoblotting analysis; assay type: cell-based; conditions: time <= 24.0 hrs, TDE = time-dependent effect
T2 sequence (Q96SW2 whole entry, looked up): as above
T2 sequence (Q9NYV4 whole entry, looked up): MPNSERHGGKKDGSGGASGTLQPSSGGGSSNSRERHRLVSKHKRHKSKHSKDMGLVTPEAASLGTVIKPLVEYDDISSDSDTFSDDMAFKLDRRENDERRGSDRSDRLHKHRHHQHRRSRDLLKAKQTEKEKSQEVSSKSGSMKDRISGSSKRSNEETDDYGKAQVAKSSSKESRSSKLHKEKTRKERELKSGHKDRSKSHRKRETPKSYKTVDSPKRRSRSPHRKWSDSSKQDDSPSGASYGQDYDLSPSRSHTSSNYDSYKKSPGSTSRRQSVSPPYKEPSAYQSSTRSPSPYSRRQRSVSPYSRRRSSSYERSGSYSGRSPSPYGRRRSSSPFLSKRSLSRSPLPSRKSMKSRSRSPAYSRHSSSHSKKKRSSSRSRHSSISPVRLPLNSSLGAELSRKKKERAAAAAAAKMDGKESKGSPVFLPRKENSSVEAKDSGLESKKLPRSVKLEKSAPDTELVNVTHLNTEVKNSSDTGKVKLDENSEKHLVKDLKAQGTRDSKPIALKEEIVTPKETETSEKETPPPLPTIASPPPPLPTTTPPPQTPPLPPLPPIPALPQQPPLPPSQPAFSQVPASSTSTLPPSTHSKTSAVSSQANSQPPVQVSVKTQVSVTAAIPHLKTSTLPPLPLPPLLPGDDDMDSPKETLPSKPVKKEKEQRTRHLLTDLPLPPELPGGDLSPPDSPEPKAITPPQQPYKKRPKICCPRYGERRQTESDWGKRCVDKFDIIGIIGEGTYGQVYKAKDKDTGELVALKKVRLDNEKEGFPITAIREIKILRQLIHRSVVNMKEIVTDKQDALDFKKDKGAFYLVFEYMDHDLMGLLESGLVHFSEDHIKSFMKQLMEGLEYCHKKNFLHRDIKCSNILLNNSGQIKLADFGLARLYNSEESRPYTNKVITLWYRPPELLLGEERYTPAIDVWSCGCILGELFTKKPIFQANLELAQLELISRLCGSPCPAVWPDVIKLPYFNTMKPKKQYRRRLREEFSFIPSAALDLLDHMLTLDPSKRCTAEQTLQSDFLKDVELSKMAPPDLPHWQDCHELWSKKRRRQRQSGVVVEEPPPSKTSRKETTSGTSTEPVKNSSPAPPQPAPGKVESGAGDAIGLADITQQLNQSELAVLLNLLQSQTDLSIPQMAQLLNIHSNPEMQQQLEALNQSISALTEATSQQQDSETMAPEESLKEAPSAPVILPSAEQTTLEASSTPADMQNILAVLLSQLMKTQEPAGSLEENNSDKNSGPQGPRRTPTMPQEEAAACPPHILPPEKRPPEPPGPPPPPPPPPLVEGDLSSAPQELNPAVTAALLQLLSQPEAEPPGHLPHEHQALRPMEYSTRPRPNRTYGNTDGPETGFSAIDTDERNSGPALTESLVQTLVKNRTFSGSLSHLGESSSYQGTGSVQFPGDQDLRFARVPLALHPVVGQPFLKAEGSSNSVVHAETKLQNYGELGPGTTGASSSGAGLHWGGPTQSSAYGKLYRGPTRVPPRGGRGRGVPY

[3] = target: T1, Protein cereblon/Cyclin-dependent kinase 13 (Homo sapiens); assay: PROTAC activity at CRBN/CDK13 in human MDA-MB-231 cells assessed as induction of CDK13 degradation at 1 uM by immunoblotting analysis; assay type: cell-based; conditions: time <= 24.0 hrs, TDE = time-dependent effect
[4] = target: T1, Protein cereblon/Cyclin-dependent kinase 13 (Homo sapiens); assay: PROTAC activity at CRBN/CDK13 in human HCC38 cells assessed as induction of CDK13 degradation incubated for 15 hrs by immunoblotting analysis; assay type: cell-based; conditions: dose 0.01-3 µM
[5] = target: T2, Protein cereblon/Cyclin-dependent kinase 12 (Homo sapiens); assay: PROTAC activity at CRBN/CDK12 in human MDA-MB-436 cells assessed as induction of CDK12 degradation incubated for 15 hrs by immunoblotting analysis; assay type: cell-based; conditions: dose 0.01-3 µM
[6] = target: T2, Protein cereblon/Cyclin-dependent kinase 12 (Homo sapiens); assay: PROTAC activity at CRBN/CDK12 in human MDA-MB-231 cells assessed as induction of CDK12 degradation at 1 uM pretreated with MG132 followed by compound addition and measured after 10 hrs by immunoblotting analysis; assay type: cell-based
[7] = target: T2, Protein cereblon/Cyclin-dependent kinase 12 (Homo sapiens); assay: PROTAC activity at CRBN/CDK12 in human MDA-MB-231 cells assessed as induction of CDK12 degradation at 1 uM pretreated with MLN4924 followed by compound addition and measured after 10 hrs by immunoblotting analysis; assay type: cell-based
[8] = target: T2, Protein cereblon/Cyclin-dependent kinase 12 (Homo sapiens); assay: PROTAC activity at CRBN/CDK12 in human MDA-MB-231 cells assessed as induction of CDK12 degradation at 1 uM pretreated with bafilomycin followed by compound addition and measured after 10 hrs by immunoblotting analysis; assay type: cell-based
[9] = target: T1, Protein cereblon/Cyclin-dependent kinase 13 (Homo sapiens); assay: PROTAC activity at CRBN/CDK13 in human MDA-MB-231 cells assessed as induction of CDK13 degradation at 1 uM pretreated with bafilomycin followed by compound addition and measured after 10 hrs by immunoblotting analysis; assay type: cell-based
[10] = target: T2, Protein cereblon/Cyclin-dependent kinase 12 (Homo sapiens); assay: PROTAC activity at CRBN/CDK12 in human MDA-MB-231 cells assessed as induction of CDK12 degradation at 1 uM pretreated with pomalidomide followed by compound addition and measured after 10 hrs by immunoblotting analysis; assay type: cell-based
[11] = target: T2, Protein cereblon/Cyclin-dependent kinase 12 (Homo sapiens); assay: PROTAC activity at CRBN/CDK12 in human MDA-MB-231 cells assessed as induction of CDK12 degradation at 1 uM pretreated with 3-benzyl-1-((1r,4r)-4-((5-cyanopyridin-2-yl)amino)cyclohexyl)-1-(4-(piperazin-1-yl)phenyl)urea followed by compound addition and measured after 10 hrs by immunoblotting analysis; assay type: cell-based
[12] = target: T1, Protein cereblon/Cyclin-dependent kinase 13 (Homo sapiens); assay: PROTAC activity at CRBN/CDK13 in human MDA-MB-231 cells assessed as induction of CDK13 degradation at 1 uM pretreated with 3-benzyl-1-((1r,4r)-4-((5-cyanopyridin-2-yl)amino)cyclohexyl)-1-(4-(piperazin-1-yl)phenyl)urea followed by compound addition and measured after 10 hrs by immunoblotting analysis; assay type: cell-based
[13] = target: T2, Protein cereblon/Cyclin-dependent kinase 12 (Homo sapiens); assay: PROTAC activity at CRBN/CDK12 in human MDA-MB-231 cells assessed as induction of CDK12 degradation at 2 uM incubated for 8 hrs by global proteomic analysis; assay type: cell-based
MDA-MB-231 [14] = assay: Induction of CCNK degradation in human MDA-MB-231 cells incubated for 15 hrs by immunoblotting analysis; assay type: cell-based; conditions: dose 0.01-3 µM
MDA-MB-231 [15] = assay: Downregulation of ATM mRNA expression in human MDA-MB-231 cells incubated for 12 hrs by RT-qPCR analysis; assay type: functional, cell-based; conditions: dose 60-300 nM
MDA-MB-231 [16] = assay: Downregulation of BRCA1 mRNA expression in human MDA-MB-231 cells incubated for 12 hrs by RT-qPCR analysis; assay type: functional, cell-based; conditions: dose 60-300 nM
MDA-MB-231 [17] = assay: Downregulation of FANCD2 mRNA expression in human MDA-MB-231 cells incubated for 12 hrs by RT-qPCR analysis; assay type: functional, cell-based; conditions: dose 60-300 nM
MDA-MB-231 [18] = assay: Downregulation of SMARCC mRNA expression in human MDA-MB-231 cells incubated for 12 hrs by RT-qPCR analysis; assay type: functional, cell-based; conditions: dose 60-300 nM
MDA-MB-231 [19] = assay: Downregulation of ATM protein level in human MDA-MB-231 cells at 0.1 to 0.5 uM incubated for 48 hrs by immunoblotting analysis; assay type: functional, cell-based; conditions: dose 0.1-0.5 µM
MDA-MB-231 [20] = assay: Downregulation of BRCA1 protein level in human MDA-MB-231 cells at 0.1 to 0.5 uM incubated for 48 hrs by immunoblotting analysis; assay type: functional, cell-based; conditions: dose 0.1-0.5 µM
[21] = Antiproliferative activity against human MCF-10A cells assessed as inhibition of cell growth incubated for 5 days by CCK8 assay; assay type: toxicity, cell-based
[22] = Antiproliferative activity against HEK293 cells assessed as inhibition of cell growth incubated for 5 days by CCK8 assay; assay type: toxicity, cell-based; conditions: human
[23] = Antiproliferative activity against human MRC5 cells assessed as inhibition of cell growth incubated for 5 days by CCK8 assay; assay type: toxicity, cell-based
MDA-MB-231 [24] = assay: Synergistic antiproliferative activity against human MDA-MB-231 cells assessed as inhibition of cell growth at 0.3 to 7.5 uM incubated for 5 days in presence of cisplatin by CCK8 assay; assay type: functional, cell-based; conditions: dose 0.3-7.5 µM, time 5.0 day
MDA-MB-231 [25] = assay: Synergistic antiproliferative activity against human MDA-MB-231 cells assessed as combination index at 0.3 uM incubated for 5 days in presence of cisplatin by CCK8 assay; assay type: functional; conditions: time 5 day
MDA-MB-231 [26] = assay: Synergistic antiproliferative activity against human MDA-MB-231 cells assessed as combination index at 7.5 uM incubated for 5 days in presence of cisplatin by CCK8 assay; assay type: functional; conditions: time 5 day
MDA-MB-231 [27] = assay: Synergistic antiproliferative activity against human MDA-MB-231 cells assessed as combination index at 0.3 uM incubated for 5 days in presence of olaparib by CCK8 assay; assay type: functional; conditions: time 5 day
MDA-MB-231 [28] = assay: Synergistic antiproliferative activity against human MDA-MB-231 cells assessed as combination index at 1.5 uM incubated for 5 days in presence of olaparib by CCK8 assay; assay type: functional; conditions: time 5 day
MDA-MB-231 [29] = assay: Synergistic antiproliferative activity against human MDA-MB-231 cells assessed as combination index at 7.5 uM incubated for 5 days in presence of olaparib by CCK8 assay; assay type: functional; conditions: time 5 day
MDA-MB-231 [30] = assay: Antiproliferative activity against human MDA-MB-231 cells xenografted in female CB17SCID mouse model assessed as induction of tumor apoptosis at 200 mg/kg, po administered for 5 days by H and E staining based immunohistochemical analysis; assay type: functional, organism-based; conditions: time 5.0 day
MDA-MB-231 [31] = assay: Antiproliferative activity against human MDA-MB-231 cells xenografted in female CB17SCID mouse model assessed as increase in TUNEL signaling in tumor at 200 mg/kg, po administered for 5 days by TUNEL staining based immunohistochemical analysis; assay type: functional, organism-based; conditions: time 5.0 day
[32] = Toxicity in female CB17SCID mouse model xenografted with human MDA-MB-231 cells assessed as body weight loss at 100 to 200 mg/kg, po administered for 5 days; assay type: organism-based; conditions: in vivo, 120 h, dose 100-200 mg/kg, time 5 day

SMILES: N#Cc1ccc(N[C@H]2CC[C@H](N(C(=O)NCc3ccccc3)c3ccc(N4CCN(C5CCN(c6cc7c(cc6F)C(=O)N(C6CCC(=O)NC6=O)C7=O)CC5)CC4)cc3)CC2)nc1 (some centres not stated)
- Activity [1]: Dose-Dependent Effect
- Activity [2]: Tde
- Activity [3]: Tde
- Activity [4]: Dose-Dependent Effect
- Activity [5]: Dose-Dependent Effect
- Activity [6]: inactive
- Activity [7]: inactive
- Activity [8]: Active
- Activity [9]: Active
- Activity [10]: inactive
- Activity [11]: inactive
- Activity [12]: inactive
- Activity [13]: Active
- Activity (MDA-MB-231 [14]): Dose-Dependent Effect
- Activity (MDA-MB-231 [15]): Dose-Dependent Effect
- Activity (MDA-MB-231 [16]): Dose-Dependent Effect
- Activity (MDA-MB-231 [17]): Dose-Dependent Effect
- Activity (MDA-MB-231 [18]): Dose-Dependent Effect
- Activity (MDA-MB-231 [19]): Active
- Activity (MDA-MB-231 [20]): Active
- IC50 at 5 days [21]: > 10 µM
- IC50 at 5 days [22]: > 10 µM
- IC50 at 5 days [23]: > 10 µM
- Activity (MDA-MB-231 [24]): Active
- CI (MDA-MB-231 [25]): >1
- CI (MDA-MB-231 [26]): 0.07
- CI (MDA-MB-231 [27]): >1
- CI (MDA-MB-231 [28]): 0.9
- CI (MDA-MB-231 [29]): 0.85
- Activity (MDA-MB-231 [30]): Active
- Activity (MDA-MB-231 [31]): Active
- Activity [32]: Non-Toxic
